What was measured:
[1] = test system: chicken erythrocyte genomic DNA; test: Spectrophotometry of complexation with genomic DNA
Experimental: Chicken erythrocyte genomic DNA (Reanal, Budapest, Hungary) solution was prepared by dissolving 6 mg of DNA in 3 mL of Tris-EDTA (TE) buffer and allowed to stay for 2 days at a temperature of +2 °C until clear. The concentration of the initial DNA solution was measured using a nanodrop spectrophotometer (DeNovix, Wilmington, DE, USA). A series of DNA concentrations were prepared in TE buffer (60, 30, 20, 15 μg/mL). […] As a control, an equivalent amount of TE buffer in place of the genomic DNA was added to the samples. […] The results were then computed and statistically analyzed using GraphPad Prism software 8.0.1.

[2] = test system: genomic DNA from chicken erythrocytes; test: Agarose gel electrophoresis of DNA compositions; assay type: binding; conditions: DNA 30 μg/mL; for Interaction with DNA (in words): 11.2 to 180 μM
Experimental: The mixtures were then incubated for 30 min. To visualize nucleic acids, the intercalating dye SYBR Green was added at a ratio of 1:10 to the final volume, and the mixtures were incubated in the dark for an additional 15 min. […] The electrolyte used was TAE buffer (pH 8.0).

HCT-116 and MCF-7 cells = test: Confocal microscopy of intracellular localization; assay type: cell-based, human; conditions: DOX-1 and DOX-2 5 μM, 24 h; DOX 50 μM, 2 h
Experimental: A total of 24 h later, the studied compounds DOX-1 and DOX-2 at a concentration of 5 µM were added. Following another 24 h incubation period, Hoechst 33342 (Roche) was added, reaching a final concentration of 1.5 µg/mL. After 15 min, the dye-containing media was removed, and DBBS was added. The plate was subsequently analyzed using confocal microscopy (Zeiss LSM800, Jena, Germany).

A-498 = test: MTS cytotoxicity assay; conditions: Homo sapiens, A498, 72 h, read-out: Cytotoxic concentration IC50, A-498
Description: (§1) The study utilized human cell lines including PC-3 (human prostate adenocarcinoma), HSF (primary human skin fibroblasts), MDA-MB-231 (estrogen-negative breast adenocarcinoma), MCF-7 (estrogen-positive breast adenocarcinoma), MSC (multipotent stem cells derived from adipose tissue), SF-539 (brain gliosarcoma), SNB-19 (glioblastoma), A-498 (kidney carcinoma), M-14 (human melanoma), NCI-H322-M (primary bronchioalveolar carcinoma), HCT-15 (colon adenocarcinoma), and HCT-116 (colorectal intestinal carcinoma). We also used immortalized C2C12 mouse myoblasts (ATCC—CRL-1772). Cancer cell lines were obtained from the ATCC collection and generously provided by the Fox Chase Cancer Center (Philadelphia, USA). Conditionally normal cells, including skin fibroblasts and multipotent stem cells, were isolated by our group from postoperative materials (skin and subcutaneous fat) obtained from a conditionally healthy donor. Reagents and consumables for cell culture work were purchased from PanEco (Russia).
(§2) The cytotoxicity of the compounds under study was assessed using MTS assay on cell cultures. Cells were seeded into 96-well plates at a concentration of 10,000–20,000 cells/mL. After 24 h, gradient concentrations of the compounds were added to the culture medium and the plates were incubated for 72 h. Subsequently, the culture medium was replaced with MTS reagents (Sigma-Aldrich, Burlington, MA, USA) (MTS:PMS (0.18:0.0092 mg/mL)) and dissolved in phenol-free RPMI 1640 medium. After 2 h of incubation, the resulting water-soluble formazan was measured using the TECAN Infinite M200 Pro microplate reader at wavelengths of 555/750 nm. As a control, equivalent volumes of the solvents in which each compound was dissolved (dH2O/DMSO) were used. To calculate the percentage of viable cells relative to the control, which was considered 100%, dose-response curves were plotted against the logarithm of the compound concentration. The concentration of the compound at which cell growth is inhibited by 50% relative to the control was taken as the inhibitory concentration IC50 and calculated using Origin Pro software 8.0.1. The study was conducted in triplicates and in three independent repetitions.

M14 = test: MTS cytotoxicity assay; conditions: Homo sapiens, M14, 72 h, read-out: Cytotoxic concentration IC50, M14
Description: as §1, §2

HCT-116 [3] = test: MTS cytotoxicity assay; conditions: for IC50: Homo sapiens; for Times reduced cytotoxicity compared to doxorubicin, HCT-116 / Selectivity index IC50 HSF/IC50 HCT-116: MTS assay; for Selectivity index IC50 HSF/IC50 HCT-116: from the mean IC50 value for HSF cells; for IC25, HCT-116 / IC75, HCT-116: test concentration selected based on MTS data
Description: as §1, §2

MTS cytotoxicity assay = test: MTS cytotoxicity assay
Description: as §1, §2

MCF-7 [4] = test: MTS cytotoxicity assay; conditions: for IC50: Homo sapiens; for Selectivity index IC50 HSF/IC50 MCF-7: from the mean IC50 value for HSF cells
Description: as §1, §2

PC-3 [5] = test: MTS cytotoxicity assay; conditions: for IC50: Homo sapiens; for Selectivity index IC50 HSF/IC50 PC-3: MTS assay, from the mean IC50 value for HSF cells
Description: as §1, §2

[6] = test system: C2C12 (immortalized mouse myoblasts); test: MTS cytotoxicity assay; conditions: for Inhibition of C2C12 cell proliferation: MTS assay, sufficiently high concentrations
Description: as §1, §2

SNB-19 = test: MTS cytotoxicity assay; conditions: Homo sapiens, SNB-19, 72 h, read-out: Cytotoxic concentration IC50, SNB-19
Description: as §1, §2

NCI-H322M = test: MTS cytotoxicity assay; conditions: Homo sapiens, 72 h, read-out: Cytotoxic concentration IC50, NCI-H322M
Description: as §1, §2

SF-539 = test: MTS cytotoxicity assay; conditions: Homo sapiens, SF-539, 72 h, read-out: Cytotoxic concentration IC50, SF-539
Description: as §1, §2

HCT-15 = test: MTS cytotoxicity assay; conditions: Homo sapiens, HCT-15, 72 h, read-out: Cytotoxic concentration IC50, HCT-15
Description: as §1, §2

MDA-MB-231 = test: MTS cytotoxicity assay; conditions: Homo sapiens, MDA-MB-231, 72 h, read-out: Cytotoxic concentration IC50, MDA-MB-231
Description: as §1, §2

HCT-116 [7] = test: Colony formation assay; assay type: cell-based; conditions: Homo sapiens, HCT-116, 72 h, read-out: Inhibitory concentration IC50, HCT-116
Experimental: (§3) Cells were cultured in a 24-well plate with 1 mL of DMEM nutrient medium for 24 h. […] The experiment was conducted in triplicate and in two or three independent repetitions. Only solvent was added to the control wells instead of the test compounds. Incubation with the drugs continued for three days, after which the grown colonies were washed with cold PBS solution and fixed in a fixing buffer (10% acetic acid, 10% methanol in distilled water) for 15 min. The colonies were stained with a 0.4% solution of crystal violet in 20% ethanol for 30 min and then washed 3 times with dH2O and analyzed under a microscope. The colonies were then dissolved in 10% acetic acid for 40 min on a shaker, and the absorbance of the lysate was read at 590 nm. Results were expressed as a percentage relative to the control, and a dose–response curve was plotted to determine the IC50 value.

MCF-7 [8] = test: Colony formation assay; assay type: cell-based; conditions: Homo sapiens, MCF7, 72 h, read-out: Inhibitory concentration IC50, MCF-7
Experimental: as §3

PC-3 [9] = test: Colony formation assay; assay type: cell-based; conditions: Homo sapiens, PC-3, 72 h, read-out: Inhibitory concentration IC50, PC-3
Experimental: as §3

[10] = HCT-116, 72 h, read-out: Cytotoxic concentration IC50, HCT-116
[11] = HCT-116, read-out: IC50, HCT-116
[12] = MCF7, 72 h, read-out: Cytotoxic concentration IC50, MCF-7
[13] = PC-3, 72 h, read-out: Cytotoxic concentration IC50, PC-3
[14] = test concentration selected based on MTS data
[15] = colony formation assay, incubation three days

## COc1cccc2c1C(=O)c1c(O)c3c(c(O)c1C2=O)CC(O)(C(=O)CO)CC3OC1CC(NC(=O)c2cnc(C)c3c2COC(C)(C)O3)C(O)C(C)O1 (stereo not shown) [DOX-1, N-(3-hydroxy-2-methyl-6-((3,5,12-trihydroxy-3-(2-hydroxyacetyl)-10-methoxy-6,11-dioxo-1,2,3,4,6,11-hexahydrotetracen-1-yl)oxy)tetrahydro-2H-pyran-4-yl)-2,2,8-trimethyl-4H-[1,3]dioxino[4,5-c]pyridine-5-carboxamide]
[1]
  Changes in the optical spectrum on interaction with genomic DNA (in words): no significant changes
[1]; DNA concentration 15 µg/mL
  Shift of the Absorption Maximum Relative to Control: 2 nm
[1]; DNA concentration 20 µg/mL
  Shift of the Absorption Maximum Relative to Control: 1 nm
[1]; DNA concentration 30 µg/mL
  Shift of the Absorption Maximum Relative to Control: 4 nm
[1]; DNA concentration 60 µg/mL
  Shift of the Absorption Maximum Relative to Control: 2 nm
[2]
  Interaction with DNA (in words): do not interact with DNA
HCT-116 and MCF-7 cells
  Penetration into the cell nuclei (in words): do not penetrate the cell nuclei
A-498
  IC50: 4.46 ± 3.19 µM
M14
  IC50: 4.29 ± 1.56 µM
HCT-116 [3]; [10]
  IC50: 4.63 ± 0.55 µM
HCT-116 [3]; [11]
  IC50: 4 µM
HCT-116 [3]
  Times reduced cytotoxicity compared to doxorubicin, HCT-116: 4.2
  Selectivity index IC50 HSF/IC50 HCT-116: 1.28 ± 0.18
  IC25, HCT-116: 1.7 µM
  IC75, HCT-116: 9 µM
MTS cytotoxicity assay; mouse
  IC50 at 72 h: 0.23 ± 0.16 µM
MCF-7 [4]; [12]
  IC50: 1.88 ± 0.48 µM
MCF-7 [4]; MTS assay
  Times less potent than unmodified doxorubicin, MCF-7: 20.9
  Selectivity index IC50 HSF/IC50 MCF-7: 3.32 ± 0.87
PC-3 [5]; [13]
  IC50: 5.41 ± 0.88 µM
PC-3 [5]; PC-3, read-out: IC50, PC-3
  IC50: 6.1 µM
PC-3 [5]
  Selectivity index IC50 HSF/IC50 PC-3: 1.12 ± 0.24
PC-3 [5]; concentration and corresponding IC used in the Comet assay
  IC25, PC-3: 3 µM (IC25)
[6]
  Inhibition of C2C12 cell proliferation: ≥ 95%
SNB-19
  IC50: 5.08 ± 3.4 µM
NCI-H322M
  IC50: 7.2 ± 4.76 µM
SF-539
  IC50: 2.06 ± 0.18 µM
HCT-15
  IC50: > 100 µM
MDA-MB-231
  IC50: 4.05 ± 0.96 µM
HCT-116 [7]
  IC50: 4.42 ± 3.02 µM
MCF-7 [8]
  IC50: 0.87 ± 0.12 µM
PC-3 [9]
  IC50: 3.2 ± 0.31 µM

## COc1cccc2c1C(=O)c1c(O)c3c(c(O)c1C2=O)CC(O)(C(=O)CO)CC3OC1CC(NC(=O)/C=C/c2cnc(C)c3c2COC(C)(C)O3)C(O)C(C)O1 (stereo not shown) [DOX-2, (E)-N-(3-hydroxy-2-methyl-6-((3,5,12-trihydroxy-3-(2-hydroxyacetyl)-10-methoxy-6,11-dioxo-1,2,3,4,6,11-hexahydrotetracen-1-yl)oxy)tetrahydro-2H-pyran-4-yl)-3-(2,2,8-trimethyl-4H-[1,3]dioxino[4,5-c]pyridin-5-yl)acrylamide]
[1]
  Changes in the optical spectrum on interaction with genomic DNA (in words): no significant changes
[1]; DNA concentration 15 µg/mL
  Shift of the Absorption Maximum Relative to Control: 0 nm
[1]; DNA concentration 20 µg/mL
  Shift of the Absorption Maximum Relative to Control: 0 nm
[1]; DNA concentration 30 µg/mL
  Shift of the Absorption Maximum Relative to Control: 0 nm
[1]; DNA concentration 60 µg/mL
  Shift of the Absorption Maximum Relative to Control: 1 nm
[2]
  Interaction with DNA (in words): do not interact with DNA
HCT-116 and MCF-7 cells
  Penetration into the cell nuclei (in words): do not penetrate the cell nuclei
A-498
  IC50: 41.7 ± 7.42 µM
M14
  IC50: 2.61 ± 0.24 µM
HCT-116 [3]; [10]
  IC50: 1.43 ± 0.29 µM
HCT-116 [3]
  Times reduced cytotoxicity compared to doxorubicin, HCT-116: 1.3
  Selectivity index IC50 HSF/IC50 HCT-116: >140
MTS cytotoxicity assay; human
  IC50 at 72 h: > 200 µM
MTS cytotoxicity assay; mouse
  IC50 at 72 h: 2.8 ± 1.71 µM
MCF-7 [4]; [12]
  IC50: 0.77 ± 0.15 µM
MCF-7 [4]; MTS assay
  Selectivity index for MCF-7, times greater than that of doxorubicin: 15
  Times less potent than unmodified doxorubicin, MCF-7: 8.5
  Selectivity index IC50 HSF/IC50 MCF-7: >260
PC-3 [5]; [13]
  IC50: 1.97 ± 0.31 µM
PC-3 [5]
  Selectivity index IC50 HSF/IC50 PC-3: >100
[6]; Mus musculus, C2C12, read-out: Inhibition of C2C12
  inhibition at 200 µM: ≤ 60%
SNB-19
  IC50: 0.87 ± 0.1 µM
NCI-H322M
  IC50: > 200 µM
SF-539
  IC50: 1.74 ± 0.11 µM
HCT-15
  IC50: > 200 µM
MDA-MB-231
  IC50: 1.58 ± 1.03 µM
HCT-116 [7]
  IC50: 0.91 ± 0.39 µM
MCF-7 [8]
  IC50: 1.63 ± 0.04 µM
PC-3 [9]
  IC50: 1.66 ± 0.82 µM

## COc1cccc2c1C(=O)c1c(O)c3c(c(O)c1C2=O)C[C@@](O)(C(=O)CO)C[C@@H]3O[C@H]1C[C@H](N)[C@H](O)[C@H](C)O1 [DOX, Doxorubicin, reference compound]
[1]
  Changes in the optical spectrum on interaction with genomic DNA (in words): significant changes
[2]; agarose gel
  Concentration sufficient to completely prevent migration of DNA: 15 µM
HCT-116 and MCF-7 cells
  Penetration into the cell nuclei (in words): efficiently permeates and accumulates in the cell nuclei
A-498
  IC50: 0.35 ± 0.06 µM
M14
  IC50: 0.16 ± 0.02 µM
HCT-116 [3]; [10]
  IC50: 1.1 ± 0.64 µM
HCT-116 [3]; [11]
  IC50: 1 µM
HCT-116 [3]
  IC25, HCT-116: 0.25 µM
  IC75, HCT-116: 2.5 µM
MTS cytotoxicity assay; human, HSF primary skin fibroblasts
  IC50 at 72 h: 1.12 ± 0.66 µM
MTS cytotoxicity assay; mouse, C2C12 immortalized myoblasts
  IC50 at 72 h: 0.045 ± 0.004 µM
MCF-7 [4]; [12]
  IC50: 0.09 ± 0.05 µM
MCF-7 [4]; MCF7, read-out: IC50, MCF-7
  IC50: 0.05 µM
MCF-7 [4]; [14]
  IC10, MCF-7: 0.01 µM
  IC25, MCF-7: 0.02 µM
  IC70, MCF-7: 0.2 µM
PC-3 [5]; [13]
  IC50: 1.05 ± 0.62 µM
PC-3 [5]; PC-3, read-out: IC50, PC-3
  IC50: 1.1 µM
[6]
  Inhibition of C2C12 cell proliferation: ≥ 95%
SNB-19
  IC50: 0.1 ± 0.04 µM
NCI-H322M
  IC50: 2.46 ± 1.18 µM
SF-539
  IC50: 0.53 ± 0.35 µM
HCT-15
  IC50: 0.46 ± 0.16 µM
MDA-MB-231
  IC50: 0.73 ± 0.25 µM
HCT-116 [7]; [15]
  IC50: 0.62 ± 0.14 µM
MCF-7 [8]; [15]
  IC50: 0.06 ± 0.003 µM
PC-3 [9]; [15]
  IC50: 1.17 ± 0.48 µM

Source: PMC10970924 (Life, 2024)
